Test results published in the supplement of paper PMC10331698.
± gives the standard deviation of the averaged measurements.

Experiments:
Test in all cases: level (log10 ratio to DMSO vehicle control); higher = higher biomarker level / cell amount than vehicle control
Conditions in all cases: in DMSO
[1] = compound: CC(C)(C)C(=O)CC(=O)C(F)(F)C(F)(F)C(F)(F)F [(Heptafluorobutanoyl)pivaloylmethane]
Procedure: (§1)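 BioMAP Diversity Plus panel of 12 human primary cell co-culture systems (3C, 4H, LPS, SAg, BT, BF4T, BE3C, CASM3C, HDF3CGF, KF3CT, MyoF, Mphg). Compounds were added 1 h before stimulation and left for 24 h (MyoF 48 h; BT 72 h for soluble read-outs or 6 d for IgG). Biomarkers were read by ELISA, cytotoxicity by SRB, PBMC viability and proliferation by Alamar Blue. Each well value was divided by the mean of 8 DMSO control wells on the same plate and log10 transformed; duplicate blinded samples were tested at 4 concentrations.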

[2] = compound: O=C(O)C(F)(F)C(F)(F)C(F)(F)C(F)(F)C(F)(F)C(F)(F)C(F)(F)C(F)(F)C(F)(F)C(F)(F)C(F)(F)C(F)(F)F [Perfluorotridecanoic acid]
Procedure: as §1

Perfluorohexanoic acid = compound: O=C(O)C(F)(F)C(F)(F)C(F)(F)C(F)(F)C(F)(F)F [Perfluorohexanoic acid]
Procedure: as §1

[3] = compound: O=P(O)(O)CCC(F)(F)C(F)(F)C(F)(F)C(F)(F)C(F)(F)C(F)(F)C(F)(F)C(F)(F)F [((Perfluorooctyl)ethyl)phosphonic acid]
Procedure: as §1

[4] = compound: O=S(=O)(O)C(F)(F)C(F)(F)C(F)(F)C(F)(F)C(F)(F)C(F)(F)C(F)(F)C(F)(F)F [Perfluorooctanesulfonic acid]
Procedure: as §1

[5] = compound: O=S(=O)(O)C(F)(F)C(F)(F)C(F)(F)C(F)(F)C(F)(F)C(F)(F)C(F)(F)C(F)(F)F [Potassium perfluorooctanesulfonate]
Procedure: as §1

Test System | level (log10) ([1]; 6700 nM) | level (log10) ([1]; 20000 nM) | level (log10) ([1]; 60000 nM) | level (log10) ([2]; 1500 nM) | level (log10) ([2]; 4400 nM) | level (log10) ([2]; 13000 nM) | level (log10) ([2]; 40000 nM) | level (log10) (Perfluorohexanoic acid; 6700 nM) | level (log10) (Perfluorohexanoic acid; 20000 nM) | level (log10) (Perfluorohexanoic acid; 60000 nM) | level (log10) ([3]; 6700 nM) | level (log10) ([3]; 20000 nM) | level (log10) ([3]; 60000 nM) | level (log10) ([4]; 6700 nM) | level (log10) ([4]; 20000 nM) | level (log10) ([4]; 60000 nM) | level (log10) ([5]; 6700 nM) | level (log10) ([5]; 20000 nM) | level (log10) ([5]; 60000 nM)
BF4T:CD106/VCAM-1 | 0.0075 ± 0.015 | -0.002 ± 0.0042 | -0.005 | 0.005 ± 0.065 | 0.007 ± 0.028 | 0.0035 ± 0.0064 | -0.0205 ± 0.0092 | 0.0025 ± 0.042 | -0.0145 ± 0.0078 | -0.017 ± 0.017 | -0.009 ± 0.018 | 0.0185 ± 0.019 | 0.0205 ± 0.052 | -0.0065 ± 0.0021 | -0.0155 ± 0.012 | -0.016 ± 0.03 | 0.0115 ± 0.015 | -0.014 ± 0.0099 | 0.01 ± 0.052
BE3C:CXCL9/MIG | -0.0045 ± 0.0035 | -0.0025 ± 0.0064 | -0.0005 ± 0.0064 | -0.0015 ± 0.015 | -0.0045 ± 0.0035 | -0.014 ± 0.0099 | -0.0125 ± 0.013 | 0.005 ± 0.0014 | 0 ± 0.0099 | 0.001 ± 0.0099 | 0.0165 ± 0.0064 | 0.011 ± 0.0057 | 0.013 ± 0.021 | 0.0105 ± 0.0078 | -0.011 ± 0.021 | -0.513 ± 0.32 | 0.0095 ± 0.0064 | -0.014 ± 0.024 | -0.039 ± 0.021
BE3C:CD54/ICAM-1 | -0.0055 ± 0.005 | -0.008 ± 0.0014 | -0.0185 ± 0.011 | 0.0015 ± 0.04 | -0.0285 ± 0.015 | -0.011 ± 0.0085 | 0.0035 ± 0.0021 | 0.0065 ± 0.00071 | -0.0145 ± 0.0064 | -0.014 ± 0.013 | -0.0275 ± 0.00071 | -0.024 | 0.0045 ± 0.012 | 0.016 ± 0.011 | 0.0665 ± 0.00071 | -0.263 ± 0.21 | 0.027 ± 0.0028 | 0.074 ± 0.024 | 0.0575 ± 0.0064
LPS:M-CSF | -0.004 ± 0.018 | 0 ± 0.0085 | -0.0125 ± 0.052 | -0.006 ± 0.042 | -0.017 ± 0.047 | -0.0135 ± 0.019 | -0.568 ± 0.03 | 0.002 ± 0.0099 | -0.0125 ± 0.015 | -0.0055 ± 0.025 | -0.0385 ± 0.018 | -0.052 ± 0.037 | -0.183 ± 0.072 | -0.022 ± 0.011 | 0 ± 0.031 | 0.008 ± 0.017 | -0.0215 ± 0.016 | 0 ± 0.024 | 0.008 ± 0.014
3C:CXCL8/IL-8 | -0.015 ± 0.011 | -0.007 ± 0.045 | 0.016 ± 0.079 | 0.017 ± 0.025 | -0.01 ± 0.017 | -0.144 ± 0.19 | -0.715 ± 0.14 | -0.006 ± 0.0042 | 0.005 ± 0.0057 | 0.0635 ± 0.037 | 0.0315 ± 0.019 | 0.03 ± 0.018 | 0.0685 ± 0.0092 | 0.009 ± 0.024 | 0.0095 ± 0.026 | 0.049 ± 0.047 | 0.0295 ± 0.044 | 0.027 ± 0.02 | 0.0555 ± 0.0064
3C:SRB | -0.001 ± 0.0057 | -0.003 ± 0.0071 | -0.061 ± 0.075 | -0.017 ± 0.0085 | -0.0125 ± 0.0035 | -0.012 ± 0.016 | -0.0125 ± 0.028 | -0.0065 ± 0.0078 | -0.011 ± 0.0057 | -0.001 ± 0.0028 | 0.01 ± 0.016 | 0.001 ± 0.016 | -0.078 ± 0.045 | 0.018 ± 0.0042 | -0.008 ± 0.0099 | -0.0625 ± 0.015 | 0.0105 ± 0.025 | -0.0195 ± 0.033 | -0.045 ± 0.042
